This note sets out measurements from publication PMC13249469, “High-throughput ligand diversification to discover chemical inducers of proximity” (Nature Chemical Biology, 2026).

For the test, the target named is T1, CRBN (Cereblon) (Homo sapiens, UniProt Q96SW2).
T1 construct: CRBN–DDB1; with DDB1
Kind of test: competitive FP displacement of BODIPY-labelled IMiD probe, without ENL YEATS. The test is classed as binding.

Consider `O=C(COc1cccc2c1C(=O)N(C1CCC(=O)NC1=O)C2=O)NCCOCCOCCNS(=O)(=O)Nc1cccc(-c2cn3cc(C(=O)NC4CCC4)ccc3n2)c1` (stereo not shown) [SR-1114], for which the IC50 (usually the midpoint of a concentration-inhibition curve) amounted to 155 nM.
